Assay results as given in patent publication US20220332758A1, “PEPTIDE-BASED COMPOSITIONS AND METHODS FOR TREATING ALZHEIMER'S DISEASE” (Board of Regents, The Universityof Texas System, priority 2019, published 2022).

What was measured:
[1] = molecular target: T1, α face pockets of the 20S core proteasome (Homo sapiens, UniProt P25787+P60900); assay: Competition of TAT peptides with Rpt C-terminal tail peptides for α face pockets (ChT-L activity of 20S); format: biochemical
T1 construct: purified from erythrocytes; purchased Boston Biochem, Inc. or Enzo Life Sciences, Inc; host or cells: human erythrocytes
Text: As mentioned herein, the binding pockets on the α face accept “anchors” from natural protein ligands of the 20S core. […] The 10-residue Rpt-derived C-terminal “tail” peptides (“Rpt peptides”) can be used as competitors with the Rpt subunits or with small allosteric ligands. Importantly, the Rpt peptides interject between the subunits with their C-termini, whereas TAT peptides, according to the modeling, use their N-termini for this purpose. To test the specificity of interactions between TAT compounds and the α face, competition experiments were performed. The 20S core was challenged with selected TAT compounds after treatment with Rpt peptides. Peptides of Rpt2 ([…]; SEQ ID NO: 10), Rpt3 ([…]; SEQ ID NO: 11), Rpt5 ([…]; SEQ ID NO: 12) and Rpt6 ([…]; SEQ ID NO: 13) subunits were selected, docking in α3/α4, α1/α2, α5/α6 and α2/α3 pockets, respectively. Tails of Rpt2, 3, and 5 display the canonical HbYX motif, whereas the LeuTrpLys C-terminus of Rpt6 may be considered “pseudo-HbYX”, with a bulky Trp replacing Tyr. Results of the competition experiments are presented as radar plots in FIG. 15. […] This pocket also emerged as the major binding site for (1) and (8). However, these compounds likely weakly competed with the Rpt2 tail for binding to the α3/α4 pocket as well. The α3/α4 pocket seemed to be favored by (6). […] These complex patterns point at the importance of allosteric effects between the α face ligands, the gate and the catalytic chamber.
Determination of Proteasome Activity. Human housekeeping core (20S) proteasome purified from erythrocytes was purchased from Boston Biochem, Inc. (Cambridge, Mass.) or from Enzo Life Sciences, Inc. (Farmingdale, N.Y.). Multiple batches of the proteasomes were used and performed reproducibly. The stock proteasome was diluted to 0.2 mg/mL working solution in “dilution buffer” (50 mM Tris/HCl, pH 8, 20% glycerol). The following model peptide substrates, releasing fluorescent 7-amino-4-methylcoumarin (AMC) reporter group after cleavage, were used: succinyl-LeuLeuValTyr-AMC (SEQ ID NO: 14) (for the ChT-L peptidase; SucLLVY-AMC; Bachem Bioscience Inc., Philadelphia, Pa.), butoxycarbonyl-LeuArgArg-AMC (T-L; Bachem Bioscience Inc., Philadelphia, Pa.) and carbobenzoxy-LeuLeuGlu-AMC (PGPH; Enzo Life Sciences Inc., Farmingdale, N.Y.). The substrates were used at concentration of 50 μM (ChT-L) or 100 μM (T-L, PGPH). Free AMC (Sigma-Aldrich, St. Louis, Mo.) was used as the standard. The C-terminal peptides derived from Rpt2, Rpt3, Rpt5 and Rpt6 were synthesized (standard solid-phase peptide chemistry) and purified to at least 98% purity by GenScript (Piscataway, N.J.). The TAT peptides, Rpt peptides (except Rpt6) and the peptide substrates were dissolved in anhydrous dimethylsulfoxide (DMSO; Sigma-Aldrich, St. Louis, Mo.) and such stock solutions were stored at −20° C. The total concentration of DMSO in final reaction mixtures never exceeded 3% (vol/vol). The Trp (tryptophan)-containing Rpt6 peptide was dissolved in ultrapure water and stored at −20° C., protected from light. The reaction was carried out in 96-well plates, in 100 μL of reaction mixture that consisted of 45 mM Tris/HCl, pH 8, 100 mM KCl, 1 mM EDTA (reaction buffer) and a fluorogenic peptide substrate, to which 200 ng (nearly […]) of proteasome were added. The addition of KCl/EDTA (ethylenediaminetetraacetic acid) to reaction buffer assured latency of the core proteasome. The proteasome was preincubated with a substrate for 10 min at room temperature, then 1 μL of DMSO or a desired concentration of a TAT peptide in 1 μL of DMSO were added. After mixing, the plate was transferred to a Fluoroskan Ascent plate reader (Thermo Fisher Scientific Inc., Waltham, Mass.) for 1 h (37° C.), with fluorescence readouts once per minute. To test the competition with Rpt derived peptides, the Rpt peptide (1 μM) was added before the TAT peptide to the reaction mixture. […]

20S proteasome = 20S proteasome (Homo sapiens, UniProt P25787+P60900); conditions: cited from earlier work
[2] = molecular target: T2, proteasome ChT-L activity in SK-N-SH (ATCC HTB-11) cells (Homo sapiens, UniProt P25787+P60900); assay: ChT-L proteasome activity in lysates of SK-N-SH cells treated with TAT peptides; format: cell-based; conditions: 1 μM, 24 h
T2 construct: host or cells: SK-N-SH human neuroblastoma cells
Method: (§1) Cell Culture. Human SK-N-SH neuroblastoma cell line (ATCC® HTB-11™ American Type Culture Collection; Manassas, Va.) were cultured according to ATCC specifications (EMEM, 10% heat-inactivated FBS) The cells at passage 2-4 were treated with 1 μM TAT peptides or the DMSO vehicle diluted with the medium 1: 1000, for 24 h. The content of live cells was determined by the Trypan Blue-exclusion assay. The cells were harvested, washed twice in PBS, resuspended in dilution buffer (as described herein) and stored in −80° C. To prepare lysates, the thawed preparations were vortexed with glass beads and centrifuged for 5 min 5,000×g (4° C.). The supernatant was centrifuged for 20 min 14,000×g (4° C.). The resulting supernatant—“crude lysate” was diluted to 1 mg/mL of total protein with dilution buffer. 1 μg of lysate per assay (reaction buffer: 50 mM Tris/HCl pH 8, 0.1 mM MgCl2, 0.2 mM ATP, 0.1 mM dithiothreitol, 50 μM Suc-LLVY-AMC (SEQ ID NO: 14)) was used for determination of ChT-L activity in a 96-well format, as above.

[3] = molecular target: proteasome in SK-N-SH cell lysates (Homo sapiens, UniProt P28074); assay: ChT-L activity of SK-N-SH cell lysates exposed to Bortezomib; format: biochemical; conditions: 1 μM
Method: as §1

[4] = molecular target: T3, latent human 20S proteasome (Homo sapiens, UniProt P25787+P60900); assay: Chymotrypsin-like (ChT-L) activity of purified latent human 20S proteasome, Suc-LLVY-AMC substrate; format: biochemical
T3 construct: purified from erythrocytes; purchased Boston Biochem, Inc. or Enzo Life Sciences, Inc; host or cells: human erythrocytes
Method: Determination of Proteasome Activity. Human housekeeping core (20S) proteasome purified from erythrocytes was purchased from Boston Biochem, Inc. (Cambridge, Mass.) or from Enzo Life Sciences, Inc. (Farmingdale, N.Y.). […] The stock proteasome was diluted to 0.2 mg/mL working solution in “dilution buffer” (50 mM Tris/HCl, pH 8, 20% glycerol). The following model peptide substrates, releasing fluorescent 7-amino-4-methylcoumarin (AMC) reporter group after cleavage, were used: succinyl-LeuLeuValTyr-AMC (SEQ ID NO: 14) (for the ChT-L peptidase; SucLLVY-AMC; Bachem Bioscience Inc., Philadelphia, Pa.), butoxycarbonyl-LeuArgArg-AMC (T-L; Bachem Bioscience Inc., Philadelphia, Pa.) and carbobenzoxy-LeuLeuGlu-AMC (PGPH; Enzo Life Sciences Inc., Farmingdale, N.Y.). The substrates were used at concentration of 50 μM (ChT-L) or 100 μM (T-L, PGPH). Free AMC (Sigma-Aldrich, St. Louis, Mo.) was used as the standard. […] The TAT peptides, Rpt peptides (except Rpt6) and the peptide substrates were dissolved in anhydrous dimethylsulfoxide (DMSO; Sigma-Aldrich, St. Louis, Mo.) and such stock solutions were stored at −20° C. The total concentration of DMSO in final reaction mixtures never exceeded 3% (vol/vol). The Trp (tryptophan)-containing Rpt6 peptide was dissolved in ultrapure water and stored at −20° C., protected from light. The reaction was carried out in 96-well plates, in 100 μL of reaction mixture that consisted of 45 mM Tris/HCl, pH 8, 100 mM KCl, 1 mM EDTA (reaction buffer) and a fluorogenic peptide substrate, to which 200 ng (nearly […]) of proteasome were added. […] The proteasome was preincubated with a substrate for 10 min at room temperature, then 1 μL of DMSO or a desired concentration of a TAT peptide in 1 μL of DMSO were added. After mixing, the plate was transferred to a Fluoroskan Ascent plate reader (Thermo Fisher Scientific Inc., Waltham, Mass.) for 1 h (37° C.), with fluorescence readouts once per minute. To test the competition with Rpt derived peptides, the Rpt peptide (1 μM) was added before the TAT peptide to the reaction mixture. The reaction rates were calculated from a linear segment of kinetic curves constructed from measurements in 1-min intervals. Reaction rates were calculated using a linear fit performed with the Slope Analyser and Enzyme Kinetics applications launched within Origin Pro 2019 (OriginLab Corporation, Northampton, Mass.). […] The data are presented as mean±SD from at least three independent experiments.
Statistical Analysis. Experiments were performed at least in three independent replicates. The results are presented as a mean±SD. A two-tailed t-test was applied to compare the means. The comparisons were allowing for unequal variances with a Welch correction. Abundance of proteasome conformers was compared with the chi squared test and two-sample proportion test. A significance level was set at 0.05. Statistical analysis was performed using statistical procedures offered by OriginPro 2019 (OriginLabs, Northampton, Mass.). Reaction rates were calculated from a smoothed linear segment of kinetic traces using OriginPro 2019. Response curves (activity vs. compound concentration) were fitted with a nonlinear fitting application of OriginPro 2019. The AC50 and maximum activation fold was calculated based on the equations implemented to fit the response curves.

N=C(N)NCCC[C@H](NC(=O)CN)C(=O)N[C@@H](CCCCN)C(=O)N[C@@H](CCCCN)C(=O)N[C@@H](CCCNC(=N)N)C(=O)N[C@@H](CCCNC(=N)N)C(=O)N[C@@H](CCC(N)=O)C(=O)N[C@@H](CCCNC(=N)N)C(=O)N[C@@H](CCCNC(=N)N)C(=O)N[C@@H](CCCNC(=N)N)C(=O)N1CCC[C@H]1C(=O)N[C@@H](CO)C(=O)O [(1), reference compound]
enhanced activation with Rpt tails ([1]; 1 μM Rpt peptide): enhanced activation in the presence of one of Rpt tails, namely Rpt5 or Rpt6
competition with Rpt tail peptides ([1]; 1 μM Rpt peptide added before the TAT peptide): weakly negative score for the Rpt2 tail to the presumed major competitor Rpt3
degradation by 20S proteasome (20S proteasome): digested by 20S proteasome
proteasome ChT-L activity in lysates from treated cells vs control lysates [2]: lack of significant activation

CC(C)C[C@H](NC(=O)[C@H](Cc1ccccc1)NC(=O)c1cnccn1)B(O)O [Bortezomib]
effect on ChT-L activity of cell lysates (in words) [3]: almost complete abrogation of ChT-L activity

CC(C)(NC(=O)C(CCC(N)=O)NC(=O)C(CCCNC(=N)N)NC(=O)C(CCCNC(=N)N)NC(=O)C(CCCCN)NC(=O)C(CCCCN)NC(=O)C(CCCNC(=N)N)NC(=O)CN)C(=O)NC(=O)C(C)(C)C(=O)NC(CCC(N)=O)C(=O)NC(CCCNC(=N)N)C(=O)NC(CCCNC(=N)N)C(=O)NC(CCCCN)C(=O)NC(CCCCN)C(=O)NC(CCCNC(=N)N)C(=O)NCC(=O)O (stereo not shown) [Tat5-8, 9 Aib, GRKKRRQ-AibG-QRRKKRG]
AC50 ([4]; 20S proteasome AC50, Table 1, ChT-L activity, Suc-LLVY-MCA, purified human housekeeping 20S): 183 nM
activation of ChT-L activity of 20S proteasome (in words) ([4]; in vitro, latent human 20S): surprisingly excellent activator slightly less potent than Tat1-8,9Aib
